Tests used:
[1] = tested on: KB cell line; test: MTT toxicity assay, small molecule delivery to cultured cells (KB)
Method: (§1) Media containing doxorubicin and doxorubicin/CD-polymer complexes at various concentrations were applied to cultured cell lines. After 5 hours, the media was removed and replaced with fresh media. […] ([…], “Culture of Animal Cells”, 3rd ed., Wiley-Liss: New York (1994)). […] For receptor-mediated delivery, a ligand such a folate is covalently attached to the CD-polymer used for doxorubicin complexation.

[2] = tested on: KB-VI (a multidrug resistant derivative of KB) cell line; test: MTT toxicity assay, small molecule delivery to cultured cells (KB-VI)
Method: as §1

[3] = pH 7.1; Husain et al., Applied Spectroscopy 1992; cited from earlier work
[4] = Homo sapiens, KB, 5 h, read-out: IC50 (μM of doxorubicin)

COc1cccc2c1C(=O)c1c(O)c3c(c(O)c1C2=O)C[C@@](O)(C(=O)CO)C[C@@H]3O[C@H]1C[C@H](N)[C@H](O)[C@H](C)O1 [doxorubicin]
IC50 [1, 4]: ~0.1 µM
IC50 [2, 4]: ~10 µM

OC[C@H]1O[C@@H]2O[C@H]3[C@H](O)[C@@H](O)[C@@H](O[C@H]4[C@H](O)[C@@H](O)[C@@H](O[C@H]5[C@H](O)[C@@H](O)[C@@H](O[C@H]6[C@H](O)[C@@H](O)[C@@H](O[C@H]7[C@H](O)[C@@H](O)[C@@H](O[C@H]8[C@H](O)[C@@H](O)[C@@H](O[C@H]1[C@H](O)[C@H]2O)O[C@@H]8CO)O[C@@H]7CO)O[C@@H]6CO)O[C@@H]5CO)O[C@@H]4CO)O[C@@H]3CO [β-CD, β-cyclodextrin]
Association constant between β-CD and doxorubicin [3]: 210 M⁻¹

β-cyclodextrin(cystamine)-DTBP Copolymer [Copolymer 15]
Toxicity to KB cells in the absence of doxorubicin [1]: not toxic
Toxicity to KB-VI cells in the absence of doxorubicin [2]: not toxic
